From patent US20180117148A1, “COMPOUNDS, PHARMACEUTICAL COMPOSITIONS AND METHODS OF TREATMENTS OF IMMUNE RELATED DISEASES AND DISORDERS” (priority 2016, published 2018)
Several values for one entry are separate records, joined by “and”; a condition that tells them apart may be missing. Equal entries are not always repeated.

Key:
[1] = tested on: inflammatory joint diseases like rheumatoid arthritis (RA) and psoriatic arthritis; conditions: etanercept in inflammatory joint diseases (RA, psoriatic arthritis); background figure; cited from earlier work
[2] = tested on: patients with either rheumatoid or psoriatic arthritis; experiment: Retrospective community-based study of etanercept with adjunctive neuroregulatory medications, 28-joint count (swollen and tender); format: in vivo, human
Procedure: A retrospective, community-based study assessed consecutive patients initiating biologic treatment of inflammatory arthritis. Improved outcomes were measured by a 28-joint count (swollen and tender). […] Consecutive patients with either rheumatoid or psoriatic arthritis initiated etanercept (25 mg/BIW). For partial response, neuroregulatory medications were added. Neuroregulatory medication options included bedtime dosing of either lorazepam or clonazepam, pramipexole, trazodone, other antidepressants and anticonvulsants.
Primary outcome: “≥70% reduction in 28-joint count (tender and swollen). Statistical analysis: LOCF and logistic regression (see data in FIGS. 1 and 2).

Substance: etanercept
- patients achieving American College of Rheumatology 70% improvement (ACR70) response [1]: About 27%
- patients receiving disease activity score (DAS) remission response [1]: 20.5%
- patients in whom NSAIDs were discontinued ([2]; 14 of 29 on NSAIDs at baseline): 48%
- patients in whom other DMARDs were discontinued ([2]; 22 of 28 on other DMARDs at baseline): 79%
- patients in whom methotrexate was discontinued ([2]; 24 of 32 on methotrexate at baseline (19.14 mg/wk)): 75%
- patients in whom prednisone was discontinued ([2]; 26 of 42 on prednisone at baseline (6.7 mg/d)): 62%
- patients achieving ≥70% reduction in joint count ([2]; by BOCF, 66 patients, etanercept 25 mg BIW, neuroregulatory medications added for partial response): 74%
- patients achieving ≥70% reduction in 28-joint count (tender and swollen), primary outcome ([2]; by LOCF, 52/66 patients, etanercept 25 mg BIW, neuroregulatory medications added for partial response (36/66), p<0.001): 79%
- mean 28-joint count after addition of etanercept ([2]; decreased from baseline 11.6±9.0, 66 patients, etanercept 25 mg BIW, neuroregulatory medications added for partial response): 1.3 and 1.3±4.3
